Source: ChEMBL document CHEMBL4673336, “Design, synthesis and stepwise optimization of nitrile-based inhibitors of cathepsins B and L” (Bioorg Med Chem, 2021)

Assays:
Cathepsin K = target: T1, Cathepsin K (Homo sapiens, UniProt P43235); assay: Inhibition of recombinant human cathepsin K using Z-Leu-Arg-AMC as substrate measured after 20 mins
T1 sequence (P43235 whole entry): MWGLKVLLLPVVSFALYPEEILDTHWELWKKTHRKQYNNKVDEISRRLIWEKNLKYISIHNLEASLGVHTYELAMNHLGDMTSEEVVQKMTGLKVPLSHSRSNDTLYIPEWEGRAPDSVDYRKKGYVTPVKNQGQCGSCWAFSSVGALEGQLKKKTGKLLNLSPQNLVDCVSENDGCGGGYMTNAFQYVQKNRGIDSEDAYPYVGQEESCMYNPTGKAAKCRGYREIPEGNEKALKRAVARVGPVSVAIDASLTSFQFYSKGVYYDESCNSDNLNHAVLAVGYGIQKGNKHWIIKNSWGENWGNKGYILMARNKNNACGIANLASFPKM

Cathepsin S [1] = target: T2, Cathepsin S (Homo sapiens, UniProt P25774); assay: Inhibition of human cathepsin S
Target sequence in this assay (P25774 whole entry): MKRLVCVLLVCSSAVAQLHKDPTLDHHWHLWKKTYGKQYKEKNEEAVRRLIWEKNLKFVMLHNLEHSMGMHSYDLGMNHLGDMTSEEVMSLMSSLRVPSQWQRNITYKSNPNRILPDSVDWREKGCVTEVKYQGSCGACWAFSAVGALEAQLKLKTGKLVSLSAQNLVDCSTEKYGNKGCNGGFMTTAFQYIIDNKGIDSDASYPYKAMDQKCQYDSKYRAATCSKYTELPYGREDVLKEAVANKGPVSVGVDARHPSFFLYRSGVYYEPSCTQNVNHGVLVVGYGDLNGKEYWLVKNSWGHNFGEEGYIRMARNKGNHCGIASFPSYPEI

Procathepsin L [2] = target: T3, Procathepsin L (Homo sapiens, UniProt P07711); assay: Inhibition of human cathepsin L
Target sequence in this assay (P07711 whole entry): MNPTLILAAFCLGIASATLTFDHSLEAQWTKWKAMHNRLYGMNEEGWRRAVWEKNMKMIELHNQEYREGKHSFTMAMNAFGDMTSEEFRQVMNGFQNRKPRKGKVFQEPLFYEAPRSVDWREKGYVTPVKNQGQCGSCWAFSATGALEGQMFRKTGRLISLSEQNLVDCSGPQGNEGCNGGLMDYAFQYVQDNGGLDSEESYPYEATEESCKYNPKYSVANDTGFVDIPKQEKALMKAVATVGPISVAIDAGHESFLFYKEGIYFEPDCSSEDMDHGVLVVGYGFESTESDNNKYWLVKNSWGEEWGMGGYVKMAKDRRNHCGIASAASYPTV

Cathepsin B [3] = target: T4, Cathepsin B (Homo sapiens, UniProt P07858); assay: Inhibition of human cathepsin B using Z-Phe-Arg-AMC fluorogenic peptide as substrate preincubated for 2 mins followed by substrate addition and measured for 5 mins by fluorescence assay
[4] = target: T5, Cathepsin K (Homo sapiens) (UniProt P43235); assay: Inhibition of recombinant human cathepsin K at 10 uM using Z-Leu-Arg-AMC as substrate measured after 20 mins relative to control
T5 sequence (whole entry): T1 sequence (P43235 whole entry)

Homo sapiens [5] = species on record: Homo sapiens; assay: Selectivity index, ratio of pKi for human cathepsin B using Z-Phe-Arg-AMC fluorogenic peptide as substrate preincubated for 2 mins followed by substrate addition and measured for 5 mins by fluorescence assay to pKi for human cathepsin L; settings: time 7.0 min
Cathepsin S [6] = target: T2, Cathepsin S; assay: Inhibition of human cathepsin S at 10 uM relative to control
Target sequence in this assay (P25774 115-331 limits assumed): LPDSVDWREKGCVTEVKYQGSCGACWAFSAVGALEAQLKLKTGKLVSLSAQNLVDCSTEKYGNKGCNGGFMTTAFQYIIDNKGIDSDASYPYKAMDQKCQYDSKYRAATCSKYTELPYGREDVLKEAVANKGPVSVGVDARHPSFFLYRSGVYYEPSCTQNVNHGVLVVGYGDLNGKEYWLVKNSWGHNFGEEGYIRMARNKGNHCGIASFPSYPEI

Procathepsin L [7] = target: T3, Procathepsin L; assay: Inhibition of human cathepsin L at 10 uM relative to control
Target sequence in this assay (P07711 114-333 limits assumed): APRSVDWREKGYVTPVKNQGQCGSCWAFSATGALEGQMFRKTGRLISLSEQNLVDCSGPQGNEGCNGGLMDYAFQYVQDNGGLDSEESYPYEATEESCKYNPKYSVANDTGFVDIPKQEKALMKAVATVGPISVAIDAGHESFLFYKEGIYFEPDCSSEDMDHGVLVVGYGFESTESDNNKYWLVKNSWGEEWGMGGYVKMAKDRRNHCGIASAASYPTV

Cathepsin B [8] = target: T4, Cathepsin B; assay: Inhibition of human cathepsin B at pH 4.5 using Z-Phe-Arg-AMC fluorogenic peptide as substrate preincubated for 2 mins followed by substrate addition and measured for 5 mins by fluorescence assay
Cathepsin B [9] = target: T4, Cathepsin B; assay: Inhibition of human cathepsin B at pH 6 using Z-Phe-Arg-AMC fluorogenic peptide as substrate preincubated for 2 mins followed by substrate addition and measured for 5 mins by fluorescence assay
Homo sapiens [10] = species on record: Homo sapiens; assay: Selectivity index, ratio of pKi for human cathepsin S to pKi for human cathepsin B using Z-Phe-Arg-AMC fluorogenic peptide as substrate preincubated for 2 mins followed by substrate addition and measured for 5 mins by fluorescence assay; settings: time 7.0 min
[11] = target: Cathepsin (S and K) (Homo sapiens) (UniProt P25774+P43235); assay: Selectivity index, ratio of pKi for human cathepsin S to pKi for recombinant human cathepsin K using Z-Leu-Arg-AMC as substrate measured after 20 mins; format: protein assay
Cathepsin (S and K) (Homo sapiens), sequence (P25774 whole entry, looked up, one chain of several): as the sequence (P25774 whole entry) above

Homo sapiens [12] = species on record: Homo sapiens; assay: Selectivity index, ratio of pKi for human cathepsin S to pKi for human cathepsin L
Cathepsin B [13] = target: T4, Cathepsin B; assay: Inhibition of human cathepsin B at 10 uM using Z-Phe-Arg-AMC fluorogenic peptide as substrate preincubated for 2 mins followed by substrate addition and measured for 5 mins by fluorescence assay relative to control; settings: time 7.0 min

SMILES | Ki (Cathepsin K) [nM] | Ki (Cathepsin S [1]) [nM] | Ki (Procathepsin L [2]) [nM] | Ki (Cathepsin B [3]) [nM] | inhibition [4] [%] | Ratio pKi (Homo sapiens [5]) | inhibition (Cathepsin S [6]) [%] | inhibition (Procathepsin L [7]) [%] | IC50 (Cathepsin B [8]) [nM] | IC50 (Cathepsin B [9]) [nM] | Ratio pKi (Homo sapiens [10]) | Ratio pKi [11] | Ratio pKi (Homo sapiens [12]) | inhibition (Cathepsin B [13]) [%]
C[C@@H](OCc1ccccc1)[C@@H](C#N)NC(=O)[C@H](Cc1cccc(Br)c1)NC(=O)c1cccc(-c2cccnc2)c1 | > 10000 | 20 | 20 | 31.6 | – | – | – | – | – | – | – | – | – | –
C[C@@H](OCc1ccccc1)[C@@H](C#N)NC(=O)[C@H](Cc1c[nH]c2ccccc12)NC(=O)c1ccc(-c2ccccc2)cc1 | > 10000 | 158 | 794 | 50.1 | 70 | 12 | – | – | – | – | – | – | – | –
C[C@@H](OCc1ccccc1)[C@@H](C#N)NC(=O)[C@H](Cc1cccc(Cl)c1)NS(=O)(=O)c1ccc(-c2ccccc2)cc1 | 10000 | 501 | 158 | 200 | – | – | – | – | – | – | – | – | – | –
C[C@@H](OCc1ccccc1)[C@@H](C#N)NC(=O)[C@H](Cc1cccc(Br)c1)NC(=O)c1cc(C(C)(C)C)nn1C | 2510 | 158 | 0.501 | 158 | – | – | – | – | – | – | – | – | – | –
C[C@@H](OCc1ccccc1)[C@@H](C#N)NC(=O)[C@H](Cc1cccc(Cl)c1)NS(=O)(=O)c1cccc(-c2ccccc2)c1 | > 10000 | 631 | 200 | 25.1 | – | – | – | – | – | – | – | – | – | –
C[C@@H](OCc1ccccc1)[C@@H](C#N)NC(=O)[C@H](Cc1cccc(Cl)c1)NC(=O)c1cccc(-c2ccccc2)c1 | > 10000 | 50.1 | 50.1 | 126 | – | – | – | – | – | – | – | – | – | –
C[C@@H](OCc1ccccc1)[C@@H](C#N)NC(=O)[C@H](Cc1ccc(Br)cc1)NC(=O)c1ccc(-c2ccccc2)cc1 | > 10000 | > 10000 | > 10000 | 158 | 51 | – | 86 | > 90 | – | – | – | – | – | –
C[C@@H](OCc1ccccc1)[C@@H](C#N)NC(=O)[C@H](Cc1cccc(Cl)c1)NC(=O)c1ccc(Br)cc1 | 5010 | 126 | 7.94 | 12.6 | – | – | – | – | – | – | – | – | – | –
C[C@@H](OCc1ccccc1)[C@@H](C#N)NC(=O)[C@H](Cc1cccc(Cl)c1)NC(=O)c1cccc(-c2cncnc2)c1 | > 10000 | 15.8 | 20 | 63.1 | 82 | – | – | – | – | – | – | – | – | –
C[C@@H](OCc1ccccc1)[C@@H](C#N)NC(=O)[C@H](Cc1cccc(Cl)c1)NC(=O)c1cccc(Br)c1 | 3980 | 15.8 | 0.631 | 63.1 | – | – | – | – | – | – | – | – | – | –
C[C@@H](OCc1ccccc1)[C@@H](C#N)NC(=O)[C@H](Cc1cccc(Cl)c1)NC(=O)c1cccc(-c2cccnc2)c1 | > 10000 | 12.6 | 1 | 5.01 | – | – | – | – | 33.1 | 9.01 | – | – | – | –
C[C@@H](OCc1ccccc1)[C@@H](C#N)NC(=O)[C@H](Cc1cccc(Br)c1)NC(=O)c1ccc(-c2ccccc2)cc1 | > 10000 | 501 | > 10000 | 50.1 | > 90 | – | – | 55 | 39.4 | 92.6 | – | – | – | –
C[C@@H](OCc1ccccc1)[C@@H](C#N)NC(=O)[C@H](Cc1cccc(Br)c1)NC(=O)c1ccc(-c2cccnc2)cc1 | > 10000 | 39.8 | 20 | 12.6 | 84 | – | – | – | – | – | – | – | – | –
C[C@@H](OCc1ccccc1)[C@@H](C#N)NC(=O)[C@H](Cc1cccc(Br)c1)NC(=O)c1ccc(-c2cncnc2)cc1 | 5010 | 31.6 | 20 | 12.6 | – | – | – | – | – | – | – | – | – | –
C[C@@H](OCc1ccccc1)[C@@H](C#N)NC(=O)[C@H](Cc1cccc(Cl)c1)NS(=O)(=O)c1cccc(Br)c1 | 631 | 79.4 | 0.251 | 39.8 | – | – | – | – | – | – | – | – | – | –
C[C@@H](OCc1ccccc1)[C@@H](C#N)NC(=O)[C@H](Cc1cccc(Br)c1)NC(=O)Cc1ccc(-c2ccccc2)cc1 | > 10000 | 501 | > 10000 | > 10000 | > 90 | – | – | 59 | – | – | > 50 | > 50 | > 50 | > 90
C[C@@H](OCc1ccccc1)[C@@H](C#N)NC(=O)[C@H](Cc1cccc(Cl)c1)NC(=O)c1ccc(-c2ccccc2)cc1 | 1580 | 79.4 | > 10000 | 31.6 | – | – | – | 61 | 42.3 | 57.8 | – | – | – | –
C[C@@H](OCc1ccccc1)[C@@H](C#N)NC(=O)[C@H](Cc1cccc(Cl)c1)NC(=O)c1ccc(-c2cncnc2)cc1 | 6310 | 63.1 | 15.8 | 12.6 | – | – | – | – | – | – | – | – | – | –
